Source: patent US20140120191A1, “METHOD OF TREATING A DISORDER ASSOCIATED WITH S[…]” (BEECH TREE LABS INC., priority 2011, published 2014)
“Also recorded” adds a separate entry of the source.

System: R. equi
Assay: R. equi intrabronchial challenge model of pneumonia in foals
Format: in vivo
Settings: SLO 2 IU subcutaneous twice a day without antibiotics
Method: Animals: 24 foals (average age 4 +/− days old) were used in this challenge model and two additional foals served as uninfected controls. The foals were raised on a Veterinary Science farm and kept with their mares throughout the study. Foals were evaluated shortly after birth for inclusion in the study using the following criteria; normality in physical examination, absence of lung sounds on auscultation, normal temperature, and unremarkable ultrasound examination of the lungs. None of the foals received anti-rhodococcal plasma or other treatments prior to enrollment in the study. The foals were moved with their dams to individual box stalls in a BSL2 isolation facility. Baseline values for heart rate, respiratory rate, temperature, fibrinogen concentration, and leukocyte count were obtained. […]
After the foals were sedated, a flexible fiberoptic endoscope was used to deliver the bacteria suspended in 35 ml of sterile PBS into both main bronchi. […] The foals were returned to their stalls and dams and monitored daily for changes in rectal temperature, respiration, and pulse as determined by physical exam and auscultation of the lungs. […] Clinical signs recorded included lung auscultations, overall attitude, appetite, resting respiratory rate and pulse. […] Daily observation of attitude, appetite, lung auscultation were scored (0-4) and combined to generate an overall daily score for each foal. […]

Question: With streptolysin O [SLO alone] as the substance, how does the “treatment effect / clinical course” value read?
Answer: deteriorated rapidly and required early euthanasia; also recorded: no treatment effect
